Read-outs that look alike come from different tables or passages of the source. Values belong to the molecule of their own block, whether it stands above or below them.
Key:
[1] = target: T1, ASAP1PZA (Mus musculus, UniProt Q9QWY8); test: thermal shift, soluble fraction by SDS-PAGE; type: binding; settings: 10 μM protein, no membrane
T1 sequence (Q9QWY8 325-724 limits assumed): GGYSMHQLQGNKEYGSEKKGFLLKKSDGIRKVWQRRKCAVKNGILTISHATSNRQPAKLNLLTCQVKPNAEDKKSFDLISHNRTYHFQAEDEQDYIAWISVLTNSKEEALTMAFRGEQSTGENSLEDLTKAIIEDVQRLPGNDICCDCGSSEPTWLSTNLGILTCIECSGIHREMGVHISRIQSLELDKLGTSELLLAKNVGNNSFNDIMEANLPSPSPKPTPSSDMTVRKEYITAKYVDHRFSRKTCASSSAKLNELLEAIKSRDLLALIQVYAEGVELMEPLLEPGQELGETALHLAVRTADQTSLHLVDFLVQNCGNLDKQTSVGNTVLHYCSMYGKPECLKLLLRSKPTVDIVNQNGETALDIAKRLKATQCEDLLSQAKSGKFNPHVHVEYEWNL

[2] = target: Brag2Sec7-PH (Homo sapiens, UniProt Q6DN90); test: GEF assay, […]GTPgammaS binding to Arf1, filter trapping; type: biochemical
[3] = target: ASAP1 (full-length) (Mus musculus, UniProt Q9QWY8); test: GAP assay, conversion of Arf1-GTP to Arf1-GDP; type: biochemical
[4] = target: T1, ASAP1PZA; test: GAP assay, conversion of Arf1-GTP to Arf1-GDP; type: biochemical
[5] = target: myrArf1; settings: NAV-2729 partitioned in LUVs; PBS, room temperature; not myristoylated
[6] = tested on: C2C12; test: cells; settings: Mus musculus
[7] = tested on: NIH3T3; test: cells; settings: Mus musculus
[8] = tested on: RD; test: cells; settings: Homo sapiens, RD
[9] = tested on: SMS-CTR; test: cells
[10] = tested on: OSA; test: cells
[11] = tested on: U2OS; test: cells; settings: Homo sapiens, U2OS
[12] = tested on: HeLa; test: cells; settings: Homo sapiens, HeLa, read-out: EC50 for cell killing (μM) / SecinH3
[13] = tested on: MCF 10A; test: cells; settings: Homo sapiens, MCF-10A, read-out: EC50 for cell killing (μM) / SecinH3
[14] = read-out: EC50 for cell killing (μM) / NAV-2729
[15] = read-out: EC50 for cell killing (μM) / Bragsin2
[16] = read-out: EC50 for cell killing (μM) / SecinH3

ASAP1 (full-length), sequence (Q9QWY8 whole entry): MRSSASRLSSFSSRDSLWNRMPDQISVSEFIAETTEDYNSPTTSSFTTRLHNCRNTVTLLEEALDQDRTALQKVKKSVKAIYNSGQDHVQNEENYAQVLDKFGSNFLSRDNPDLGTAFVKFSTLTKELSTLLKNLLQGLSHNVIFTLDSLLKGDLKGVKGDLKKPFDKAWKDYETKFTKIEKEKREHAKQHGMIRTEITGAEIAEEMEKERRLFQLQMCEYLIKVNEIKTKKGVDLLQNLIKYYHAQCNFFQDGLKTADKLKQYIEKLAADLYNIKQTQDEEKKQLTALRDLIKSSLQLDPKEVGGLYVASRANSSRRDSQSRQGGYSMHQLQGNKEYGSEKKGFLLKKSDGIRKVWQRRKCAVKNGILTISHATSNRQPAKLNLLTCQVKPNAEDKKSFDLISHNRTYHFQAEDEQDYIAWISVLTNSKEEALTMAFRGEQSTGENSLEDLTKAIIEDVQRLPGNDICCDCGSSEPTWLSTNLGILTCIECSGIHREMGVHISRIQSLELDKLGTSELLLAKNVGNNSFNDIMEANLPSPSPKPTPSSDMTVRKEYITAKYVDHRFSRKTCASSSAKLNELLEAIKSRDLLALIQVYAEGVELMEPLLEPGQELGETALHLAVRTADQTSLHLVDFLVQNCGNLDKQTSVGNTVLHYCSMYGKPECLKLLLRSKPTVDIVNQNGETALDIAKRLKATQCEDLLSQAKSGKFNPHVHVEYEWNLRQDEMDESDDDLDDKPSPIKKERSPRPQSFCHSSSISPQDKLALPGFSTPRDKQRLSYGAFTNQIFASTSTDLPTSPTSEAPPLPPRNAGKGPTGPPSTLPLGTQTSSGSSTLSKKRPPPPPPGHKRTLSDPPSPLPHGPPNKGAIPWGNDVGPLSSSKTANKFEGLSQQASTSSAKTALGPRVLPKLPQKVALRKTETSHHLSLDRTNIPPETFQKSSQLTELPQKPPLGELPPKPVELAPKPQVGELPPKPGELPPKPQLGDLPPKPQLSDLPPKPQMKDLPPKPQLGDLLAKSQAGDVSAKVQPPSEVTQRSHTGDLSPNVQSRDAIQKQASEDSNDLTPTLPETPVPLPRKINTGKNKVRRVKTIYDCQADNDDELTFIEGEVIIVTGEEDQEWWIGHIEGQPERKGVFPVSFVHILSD
Brag2Sec7-PH, sequence (Q6DN90 512-885): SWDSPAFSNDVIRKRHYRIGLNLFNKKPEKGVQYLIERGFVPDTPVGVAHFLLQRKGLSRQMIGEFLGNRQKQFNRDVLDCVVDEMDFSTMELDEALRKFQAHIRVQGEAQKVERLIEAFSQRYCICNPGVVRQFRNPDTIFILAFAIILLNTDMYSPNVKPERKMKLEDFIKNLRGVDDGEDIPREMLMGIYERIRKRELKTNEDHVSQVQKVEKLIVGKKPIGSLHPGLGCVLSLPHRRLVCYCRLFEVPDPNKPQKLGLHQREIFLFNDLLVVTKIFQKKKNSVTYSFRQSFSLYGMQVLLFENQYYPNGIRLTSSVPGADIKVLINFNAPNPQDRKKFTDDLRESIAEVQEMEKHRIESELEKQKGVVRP

thermal shift at 200 μM [1]: ~ 6 degree
Compound: CCCCCCCC(=O)OC[C@H](COP(=O)(O)O[C@@H]1[C@H](O)[C@H](O)[C@@H](OP(=O)(O)O)[C@H](OP(=O)(O)O)[C@H]1O)OC(=O)CCCCCCC [diC8-PIP2]

IC50 [2]: 7.1 ± 2.5 µM | IC50 [3]: 12.2 ± 1.4 µM | IC50 [4]: 4.6 ± 0.9 µM | Kd [5]: > 50 µM
Compound: O=c1cc(-c2ccc([N+](=O)[O-])cc2)[nH]c2c(-c3ccc(Cl)cc3)c(Cc3ccccc3)nn12 [NAV-2729]
EC50 ([6]; C2C12, read-out: EC50 for cell killing (μM) / NAV-2729): 11 µM | EC50 ([7]; NIH3T3, read-out: EC50 for cell killing (μM) / NAV-2729): 11 µM | EC50 [8, 14]: 8 µM | EC50 [9, 14]: 11 µM

Compound: COc1ccc2oc(C(F)(F)F)cc(=O)c2c1[N+](=O)[O-] [Bragsin2]
EC50 [10, 15]: > 50 µM | EC50 [11, 15]: > 50 µM

Compound: C[C@H]1CCC/C=C/[C@@H]2C[C@H](O)C[C@H]2[C@H](O)/C=C/C(=O)O1 [Brefeldin A]
EC50 ([8]; read-out: EC50 for cell killing (μM) / Brefeldin A): 0.006 ± 0.002 µM

Compound: COc1nc(-c2ccc3c(c2)OCO3)n(-c2ccc(NC(=O)CSc3ccccc3)cc2)n1 [SecinH3]
EC50 ([6]; C2C12, read-out: EC50 for cell killing (μM) / SecinH3): > 50 µM | EC50 [12]: > 50 µM | EC50 [13]: > 50 µM | EC50 ([7]; NIH3T3, read-out: EC50 for cell killing (μM) / SecinH3): > 50 µM | EC50 [10, 16]: > 50 µM | EC50 [8, 16]: > 50 µM | EC50 [9, 16]: > 50 µM | EC50 [11, 16]: > 50 µM
